Data: US10421765B2, “Tetrahydropyrido[4,3-d]pyrimidine inhibitors of ATR kinase” (Board of Regents, The University of Texas System, priority 2017, dated 2019)
Where two headings read alike, the source gives them in different places.

Key:
[1] = test system: ATR-driven phosphorylation of Chk1 kinase at Serine 345 in HT-29 colorectal adenocarcinoma cells; test: pCHK1 cellular assay (CHK1 p-Ser345 AlphaScreen SureFire); format: cell-based; settings: Homo sapiens, HT-29, HT-29 cells, 4-nitroquinoline N-oxide 12 uM; read-out: Cell IC50 (pCHK1 IC50 values)
Procedure, shortened: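 HT-29 cells seeded overnight, treated with 1:3 serially diluted compound for 90 minutes at 37° C., then 12 uM (final) 4-nitroquinoline N-oxide for 120 minutes. Lysates read for Chk1 p-Ser345 by AlphaScreen SureFire; IC50 from four-parameter logistic fit, normalized to DMSO (max) and 5 uM ATR inhibitor (min).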

[2] = molecular target: ATR/ATRIP complex (Homo sapiens (Human), UniProt Q13535); test: ATR/ATRIP enzymatic assay (Caliper-based); format: biochemical; settings: FAM-labeled RAD17 peptide, ATP
Procedure, shortened: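 FLAG-TEV-ATR/His6-ATRIP co-expressed in HEK293 and anti-FLAG purified. Compound preincubated 30 min at 28 °C with enzyme (2x solution 4 nM), then FAM-RAD17 peptide (2x solution 10 uM, 2 μM ATP) added for 6 h at 28 °C; HEPES pH 8, 10 mM MnCl2. Caliper conversion read-out, IC50 from four-parameter fit.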

[3] = read-out: ATR/ATRIP Enzyme IC50

ATR/ATRIP complex, sequence (Q13535 whole entry): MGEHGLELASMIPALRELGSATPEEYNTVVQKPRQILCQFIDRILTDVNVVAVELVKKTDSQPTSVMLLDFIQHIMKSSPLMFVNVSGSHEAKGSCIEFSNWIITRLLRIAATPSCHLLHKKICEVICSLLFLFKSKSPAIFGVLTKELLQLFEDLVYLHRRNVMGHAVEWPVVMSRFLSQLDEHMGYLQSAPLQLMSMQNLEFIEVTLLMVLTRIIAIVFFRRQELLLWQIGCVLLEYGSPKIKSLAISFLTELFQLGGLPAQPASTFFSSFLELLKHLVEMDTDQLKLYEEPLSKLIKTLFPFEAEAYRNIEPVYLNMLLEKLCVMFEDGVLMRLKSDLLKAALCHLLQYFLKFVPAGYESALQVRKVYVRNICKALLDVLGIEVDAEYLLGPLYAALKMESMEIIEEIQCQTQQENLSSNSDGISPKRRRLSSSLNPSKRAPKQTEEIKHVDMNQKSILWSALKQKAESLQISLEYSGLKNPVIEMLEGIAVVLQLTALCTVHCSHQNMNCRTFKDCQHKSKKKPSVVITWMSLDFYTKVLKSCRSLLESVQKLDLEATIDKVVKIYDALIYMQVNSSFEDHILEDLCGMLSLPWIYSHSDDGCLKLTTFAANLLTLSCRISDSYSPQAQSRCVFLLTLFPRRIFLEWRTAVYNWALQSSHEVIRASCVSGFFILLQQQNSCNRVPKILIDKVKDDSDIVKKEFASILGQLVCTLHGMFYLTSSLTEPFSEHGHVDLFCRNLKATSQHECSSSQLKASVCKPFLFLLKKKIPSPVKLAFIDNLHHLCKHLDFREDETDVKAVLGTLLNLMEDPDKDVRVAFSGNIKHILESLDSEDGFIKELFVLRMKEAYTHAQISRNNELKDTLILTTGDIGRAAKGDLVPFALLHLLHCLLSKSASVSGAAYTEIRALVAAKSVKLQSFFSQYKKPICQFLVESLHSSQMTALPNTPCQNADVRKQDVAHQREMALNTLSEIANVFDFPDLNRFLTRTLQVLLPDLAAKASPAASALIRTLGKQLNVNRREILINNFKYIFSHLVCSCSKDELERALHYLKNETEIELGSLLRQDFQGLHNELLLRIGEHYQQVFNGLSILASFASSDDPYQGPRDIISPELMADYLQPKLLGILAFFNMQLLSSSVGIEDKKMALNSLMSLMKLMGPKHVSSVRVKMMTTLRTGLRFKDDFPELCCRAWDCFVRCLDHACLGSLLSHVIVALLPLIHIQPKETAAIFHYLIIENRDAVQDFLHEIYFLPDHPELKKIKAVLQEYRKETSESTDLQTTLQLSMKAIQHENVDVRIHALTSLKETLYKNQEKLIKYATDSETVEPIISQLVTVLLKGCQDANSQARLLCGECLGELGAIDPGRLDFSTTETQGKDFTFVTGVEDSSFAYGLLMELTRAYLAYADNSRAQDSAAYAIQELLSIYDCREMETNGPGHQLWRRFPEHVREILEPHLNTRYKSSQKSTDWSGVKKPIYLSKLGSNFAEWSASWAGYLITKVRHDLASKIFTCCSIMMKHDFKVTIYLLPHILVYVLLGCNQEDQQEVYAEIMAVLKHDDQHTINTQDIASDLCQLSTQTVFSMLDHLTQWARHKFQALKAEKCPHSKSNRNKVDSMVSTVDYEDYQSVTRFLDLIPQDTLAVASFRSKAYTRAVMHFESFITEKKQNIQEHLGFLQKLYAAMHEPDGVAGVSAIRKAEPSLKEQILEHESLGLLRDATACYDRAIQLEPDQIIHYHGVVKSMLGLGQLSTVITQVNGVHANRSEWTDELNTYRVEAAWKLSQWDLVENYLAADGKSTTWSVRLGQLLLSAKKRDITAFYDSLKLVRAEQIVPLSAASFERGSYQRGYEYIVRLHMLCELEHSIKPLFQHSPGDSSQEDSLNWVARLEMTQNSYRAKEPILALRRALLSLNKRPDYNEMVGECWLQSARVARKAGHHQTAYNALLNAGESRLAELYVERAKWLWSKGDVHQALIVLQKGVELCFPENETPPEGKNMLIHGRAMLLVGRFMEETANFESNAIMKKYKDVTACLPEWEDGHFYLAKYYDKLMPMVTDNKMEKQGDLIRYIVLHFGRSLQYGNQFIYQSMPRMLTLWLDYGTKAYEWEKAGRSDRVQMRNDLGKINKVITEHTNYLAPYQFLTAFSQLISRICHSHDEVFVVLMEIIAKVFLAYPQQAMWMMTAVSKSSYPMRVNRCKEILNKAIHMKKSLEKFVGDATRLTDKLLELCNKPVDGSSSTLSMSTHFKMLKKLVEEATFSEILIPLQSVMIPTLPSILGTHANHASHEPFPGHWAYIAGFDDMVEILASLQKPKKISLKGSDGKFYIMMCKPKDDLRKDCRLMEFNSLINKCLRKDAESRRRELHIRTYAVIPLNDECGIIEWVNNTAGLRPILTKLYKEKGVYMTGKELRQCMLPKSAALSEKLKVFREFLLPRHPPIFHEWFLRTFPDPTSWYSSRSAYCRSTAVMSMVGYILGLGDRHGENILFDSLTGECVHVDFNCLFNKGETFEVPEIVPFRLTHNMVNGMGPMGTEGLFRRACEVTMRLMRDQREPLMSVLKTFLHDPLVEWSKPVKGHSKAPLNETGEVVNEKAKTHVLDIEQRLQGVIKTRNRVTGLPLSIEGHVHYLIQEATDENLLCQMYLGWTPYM
ATR/ATRIP complex, sequence (Q8WXE1 whole entry partner): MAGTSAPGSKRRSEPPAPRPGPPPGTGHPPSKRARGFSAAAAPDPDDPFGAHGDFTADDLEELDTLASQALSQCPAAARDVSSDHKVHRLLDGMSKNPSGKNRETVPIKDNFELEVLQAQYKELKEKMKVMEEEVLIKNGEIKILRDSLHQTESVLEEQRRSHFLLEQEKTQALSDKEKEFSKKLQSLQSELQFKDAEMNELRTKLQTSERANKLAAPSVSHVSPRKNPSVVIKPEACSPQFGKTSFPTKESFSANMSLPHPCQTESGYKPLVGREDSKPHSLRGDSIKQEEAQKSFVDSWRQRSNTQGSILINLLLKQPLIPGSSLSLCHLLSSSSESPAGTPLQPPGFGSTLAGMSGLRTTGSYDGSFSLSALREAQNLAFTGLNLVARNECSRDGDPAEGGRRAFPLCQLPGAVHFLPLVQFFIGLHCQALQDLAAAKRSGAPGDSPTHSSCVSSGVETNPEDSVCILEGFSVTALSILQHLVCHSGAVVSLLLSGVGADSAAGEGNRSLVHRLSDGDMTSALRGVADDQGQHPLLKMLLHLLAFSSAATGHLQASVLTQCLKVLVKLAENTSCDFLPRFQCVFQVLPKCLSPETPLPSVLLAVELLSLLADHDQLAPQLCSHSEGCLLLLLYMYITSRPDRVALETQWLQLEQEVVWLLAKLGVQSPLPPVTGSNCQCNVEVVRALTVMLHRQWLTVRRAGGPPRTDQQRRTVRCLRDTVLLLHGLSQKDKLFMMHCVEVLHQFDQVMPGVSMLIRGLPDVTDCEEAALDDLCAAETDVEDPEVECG

IC50 [1] [nM] | IC50 [2, 3] [nM] | IC50 ([2]; estimated range, read-out: ATR/ATRIP Enzyme IC50 (estimated class)) [nM] | SMILES
51 | 329 |  | C[C@@H]1Cc2ncnc(N3CC[C@H](S(C)(=O)=O)C3)c2CN1c1cc(Cl)nc2[nH]ccc12 [Example 86, (R)-6-(6-chloro-1H-pyrrolo[2,3-b]pyridin-4-yl)-7-methyl-4-((S)-3-(methylsulfonyl)-pyrrolidin-1-yl)-5,6,7,8-tetrahydropyrido[4,3-d]-pyrimidine]
52 | 499 |  | C[C@@H]1Cc2ncnc(C3CCN(S(C)(=O)=O)CC3)c2CN1c1ccnc2[nH]ccc12 [Example 6, (R)-7-Methyl-4-(1-(methylsulfonyl)piperidin-4-yl)-6-(1H-pyrrolo[2,3-b]pyridin-4-yl)-5,6,7,8-tetrahydropyrido[4,3-d]pyrimidine bis(trifluoroacetate)]
18 | 269 |  | COc1cc(N2Cc3c(ncnc3C3CCN(S(C)(=O)=O)CC3)C[C@H]2C)c2cc[nH]c2n1 [Example 91, (R)-6-(6-methoxy-1H-pyrrolo[2,3-b]pyridin-4-yl)-7-methyl-4-(1-(methylsulfonyl)-piperidin-4-yl)-5,6,7,8-tetrahydropyrido[4,3-d]-pyrimidine]
48 | 475 |  | COC1CCN(c2ncnc3c2CN(c2cc(Cl)nc4[nH]ccc24)[C@H](C)C3)CC1 [Example 68, (R)-6-(6-chloro-1H-pyrrolo[2,3-b]pyridin-4-yl)-4-(4-methoxy-piperidin-1-yl)-7-methyl-5,6,7,8-tetrahydro-pyrido[4,3-d]pyrimidine]
21 | 223 |  | C[C@@H]1Cc2ncnc(N3CC(S(C)(=O)=O)C3)c2CN1c1cc(Cl)nc2[nH]ccc12 [Example 32, 1-[(7R)-6-{6-chloro-1H-pyrrolo[2,3-b]pyridin-4-yl}-7-methyl-5H,6H,7H,8H-pyrido[4,3-d]pyrimidin-4-yl]-3-methanesulfonylazetidine]
586 | 1290 |  | CS(=O)(=O)N1CCC(c2ncnc3c2CN(c2ccnc4[nH]ccc24)C(CF)C3)CC1 (stereo not shown) [Example 92]
579 | 4790 |  | C[C@@H]1Cc2ncnc([C@H]3CCCN(S(C)(=O)=O)C3)c2CN1c1ccnc2[nH]ccc12 [Example 50b, (R)-7-methyl-4-((S)-1-(methylsulfonyl)piperidin-3-yl)-6-(1H-pyrrolo[2,3-b]pyridin-4-yl)-5,6,7,8-tetrahydropyrido[4,3-d]pyrimidine]
7390 | 138 |  | C[C@@H]1Cc2ncnc(C3CCN(S(C)(=O)=O)CC3)c2CN1c1cnc2cn[nH]c2c1 [Example 89, (R)-7-methyl-4-(1-(methylsulfonyl)piperidin-4-yl)-6-(1H-pyrazolo-[4,3-b]pyridin-6-yl)-5,6,7,8-tetrahydro-pyrido[4,3-d]pyrimidine]
758 | 3330 |  | C[C@@H]1Cc2ncnc([C@@H]3CCN(S(C)(=O)=O)C(C)(C)C3)c2CN1c1ccnc2[nH]ccc12 (single isomer, unassigned) [Example 48a]
20 | 237 |  | C[C@@H]1Cc2ncnc(N3CC[C@@H](S(C)(=O)=O)C3)c2CN1c1cc(Cl)nc2[nH]ccc12 [Example 87, (R)-6-(6-chloro-1H-pyrrolo[2,3-b]pyridin-4-yl)-7-methyl-4-((R)-3-(methylsulfonyl)-pyrrolidin-1-yl)-5,6,7,8-tetrahydropyrido[4,3-d]-pyrimidine]
218 | 966 |  | C[C@@H]1Cc2ncnc(N3CCC(S(C)(=N)=O)CC3)c2CN1c1cc(Cl)nc2[nH]ccc12 (stereo partly drawn) [Example 58, (1-((R)-6-(6-chloro-1H-pyrrolo[2,3-b]pyridin-4-yl)-7-methyl-5,6,7,8-tetrahydropyrido[4,3-d]pyrimidin-4-yl)piperidin-4-yl)(imino)(methyl)-λ^6-sulfanone]
265 | 336 |  | C[C@@H]1Cc2ncnc(C3CCN(S(C)(=O)=O)CC3)c2CN1c1cc(C#N)nc2[nH]ccc12 [Example 98, (R)-4-(7-methyl-4-(1-(methylsulfonyl)piperidin-4-yl)-7,8-dihydro-pyrido[4,3-d]pyrimidin-6(5H)-yl)-1H-pyrrolo-[2,3-b]pyridine-6-carbonitrile]
54 | 270 |  | C[C@@H]1Cc2ncnc(C3CCN(S(C)(=O)=O)CC3)c2CN1c1cc(C2CC2)nc2[nH]ccc12 [Example 95, (R)-6-(6-cyclopropyl-1H-pyrrolo[2,3-b]pyridin-4-yl)-7-methyl-4-(1-(methylsulfonyl)-piperidin-4-yl)-5,6,7,8-tetrahydropyrido[4,3-d]-pyrimidine]

The remaining lines, values behind:

SMILES | IC50 [1] [nM] | IC50 [2, 3] [nM] | IC50 ([2]; estimated range, read-out: ATR/ATRIP Enzyme IC50 (estimated class)) [nM]
C[C@@H]1Cc2ncnc(C3CCN(S(C)(=O)=O)CC3)c2CN1c1cc(OC2CCC2)nc2[nH]ccc12 [Example 99, (R)-6-(6-cyclobutoxy-1H-pyrrolo[2,3-b]pyridin-4-yl)-7-methyl-4-(1-(methylsulfonyl)piperidin-4-yl)-5,6,7,8-tetrahydro-pyrido[4,3-d]pyrimidine] | 9 | 75 | 
CNC(=O)C1CN(c2ncnc3c2CN(c2cc(Cl)nc4[nH]ccc24)[C@H](C)C3)C1 [Example 34, 1-[(7R)-6-{6-chloro-1H-pyrrolo[2,3-b]pyridin-4-yl}-7-methyl-5H,6H,7H,8H-pyrido[4,3-d]pyrimidin-4-yl]-N-methylazetidine-3-carboxamide] | 87 | 429 | 
C[C@@H]1Cc2ncnc(N3CCC(C#N)CC3)c2CN1c1ccnc2[nH]ccc12 [Example 82, (R)-1-(7-methyl-6-(1H-pyrrolo[2,3-b]pyridin-4-yl)-5,6,7,8-tetrahydro-pyrido[4,3-d]pyrimidin-4-yl)piperidine-4-carbonitrile] | 79 | 796 | 
C[C@@H]1Cc2ncnc(N3C[C@H]4CC[C@@H](C3)C4NS(C)(=O)=O)c2CN1c1cc(Cl)nc2[nH]ccc12 (stereo partly drawn) [Example 13, N-((1R,5S)-3-((R)-6-(6-Chloro-1H-pyrrolo[2,3-b]pyridin-4-yl)-7-methyl-5,6,7,8-tetrahydropyrido[4,3-d]pyrimidin-4-yl)-3-azabicyclo[3.2.]octan-8-yl)methanesulfonamide] | 29 | 114 | 
C[C@@H]1Cc2ncnc(N3CCC(S(C)(=O)=O)CC3)c2CN1c1cc(Cl)nc2[nH]ccc12 [Example 9, (R)-6-(6-Chloro-1H-pyrrolo[2,3-b]pyridin-4-yl)-7-methyl-4-(4-(methylsulfonyl)-piperidin-1-yl)-5,6,7,8-tetrahydropyrido[4,3-d]pyrimidine bis(trifluoroacetate)] | 25 | 442 | 
C[C@@H]1Cc2ncnc(N3C[C@H]4CC[C@@H](C3)[C@H]4NS(=O)(=O)C3CC3)c2CN1c1cc(Cl)nc2[nH]ccc12 [Example 78, N-((1R,5S,8R)-3-((R)-6-(6-chloro-1H-pyrrolo[2,3-b]pyridin-4-yl)-7-methyl-5,6,7,8-tetrahydropyrido-[4,3-d]pyrimidin-4-yl)-3-azabicyclo[3.2.1]-octan-8-yl)cyclopropane-sulfonamide] | 50 | 184 | 
C[C@@H]1Cc2ncnc(N3CCCC(C#N)C3)c2CN1c1ccnc2[nH]ccc12 (stereo partly drawn) [Example 83, 1-((R)-7-methyl-6-(1H-pyrrolo[2,3-b]pyridin-4-yl)-5,6,7,8-tetrahydro-pyrido[4,3-d]pyrimidin-4-yl)piperidine-3-carbonitrile] | 56 | 364 | 
CNC(=O)[C@H]1CCCN(c2ncnc3c2CN(c2cc(Cl)nc4[nH]ccc24)[C@H](C)C3)C1 [Example 67, (S)-1-((R)-6-(6-chloro-1H-pyrrolo[2,3-b]pyridin-4-yl)-7-methyl-5,6,7,8-tetrahydropyrido[4,3-d]-pyrimidin-4-yl)-N-methylpiperidine-3-carboxamide] | 9 | 140 | 
CCC(=O)NC1[C@@H]2CC[C@H]1CN(c1ncnc3c1CN(c1cc(Cl)nc4[nH]ccc14)[C@H](C)C3)C2 (stereo partly drawn) [Example 27, N-[3-[(7R)-6-{6-chloro-1H-pyrrolo[2,3-b]pyridin-4-yl}-7-methyl-5H,6H,7H,8H-pyrido[4,3-d]pyrimidin-4-yl]-3-aza-bicyclo[3.2.1]octan-8-yl}propanamide] | 38 |  | 1000 to 10000
C[C@@H]1Cc2ncnc(N3CCC(O)CC3)c2CN1c1cc(Cl)nc2[nH]ccc12 [Example 12, (R)-1-(6-(6-Chloro-1H-pyrrolo[2,3-b]pyridin-4-yl)-7-methyl-5,6,7,8-tetrahydropyrido[4,3-d]pyrimidin-4-yl)piperidin-4-ol] | 28 | 518 | 
C[C@@H]1Cc2ncnc(N3CCCC(C(C)(C)O)C3)c2CN1c1cc(Cl)nc2[nH]ccc12 (stereo in doubt) [Example 45, 2-((R)-1-((R)-6-(6-Chloro-1H-pyrrolo[2,3-b]pyridin-4-yl)-7-methyl-5,6,7,8-tetrahydropyrido[4,3-d]pyrimidin-4-yl)piperidin-3-yl)propan-2-ol] | 39 | 378 | 
C[C@@H]1Cc2ncnc(N3CC(C#N)C3)c2CN1c1ccnc2[nH]ccc12 [Example 81, (R)-1-(7-methyl-6-(1H-pyrrolo[2,3-b]pyridin-4-yl)-5,6,7,8-tetrahydro-pyrido[4,3-d]pyrimidin-4-yl)azetidine-3-carbonitrile] | 38 | 246 | 
C[C@@H]1Cc2ncnc(N3CCC(C(C)(C)O)CC3)c2CN1c1cc(Cl)nc2[nH]ccc12 [Example 30, 2-{1-[(7R)-6-{6-chloro-1H-pyrrolo[2,3-b]pyridin-4-yl}-7-methyl-5H,6H,7H,8H-pyrido[4,3-d]pyrimidin-4-yl]-piperidin-4-yl}propan-2-ol] | 12 | 329 | 
